Results from ChEMBL document CHEMBL1201862, “PubChem BioAssay data set” (2004).
The source made the active and inactive calls.

Key:
Format in all cases: functional
[1] = target: 5'-AMP-activated protein kinase catalytic subunit alpha-1 (Homo sapiens, UniProt Q13131)
[2] = target: Macrophage colony-stimulating factor 1 receptor (Homo sapiens, UniProt P07333);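 further: value comes from the Navigating the Kinome screening panel, CSF1R member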
[3] = target: Cyclin-dependent kinase 8 (Homo sapiens, UniProt P49336); assay: Navigating the Kinome. Panel member name: CDK8
[4] = target: Tyrosine-protein kinase JAK2 (Homo sapiens, UniProt O60674);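 further: JAK2 tested as one member of a kinase panel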
[5] = target: Glycogen synthase kinase-3 beta (Homo sapiens, UniProt P49841);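 further: value comes from a broad kinome profiling panel, with GSK3B as the panel member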
[6] = target: Leukocyte tyrosine kinase receptor (Homo sapiens, UniProt P29376); assay: Navigating the Kinome. Panel member name: LTK
[7] = target: Serine/threonine-protein kinase Chk1 (Homo sapiens, UniProt O14757);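 further: measured as one member of a kinome-wide kinase profiling panel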
Sequence of Serine/threonine-protein kinase Chk1 (O14757 whole entry): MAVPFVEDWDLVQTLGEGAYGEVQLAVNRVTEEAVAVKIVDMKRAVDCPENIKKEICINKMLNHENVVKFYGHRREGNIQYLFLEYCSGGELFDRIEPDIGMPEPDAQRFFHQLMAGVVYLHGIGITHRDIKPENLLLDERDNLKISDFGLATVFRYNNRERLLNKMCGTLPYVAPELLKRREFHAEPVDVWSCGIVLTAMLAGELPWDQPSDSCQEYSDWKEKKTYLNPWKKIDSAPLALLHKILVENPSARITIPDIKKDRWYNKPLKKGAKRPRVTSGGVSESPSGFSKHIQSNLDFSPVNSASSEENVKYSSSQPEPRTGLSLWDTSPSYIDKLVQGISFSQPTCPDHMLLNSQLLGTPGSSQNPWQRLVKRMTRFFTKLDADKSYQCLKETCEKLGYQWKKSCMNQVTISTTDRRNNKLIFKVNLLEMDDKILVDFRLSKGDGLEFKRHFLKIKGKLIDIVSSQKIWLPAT

[8] = target: Tyrosine-protein kinase receptor TYRO3 (Homo sapiens, UniProt Q06418);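 further: TYRO3 value obtained as one member of a kinome-wide profiling panel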
[9] = target: Mitogen-activated protein kinase 8 (Homo sapiens, UniProt P45983);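 further: value comes from one member of a kinome-wide kinase profiling panel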
Sequence of Mitogen-activated protein kinase 8 (P45983 whole entry): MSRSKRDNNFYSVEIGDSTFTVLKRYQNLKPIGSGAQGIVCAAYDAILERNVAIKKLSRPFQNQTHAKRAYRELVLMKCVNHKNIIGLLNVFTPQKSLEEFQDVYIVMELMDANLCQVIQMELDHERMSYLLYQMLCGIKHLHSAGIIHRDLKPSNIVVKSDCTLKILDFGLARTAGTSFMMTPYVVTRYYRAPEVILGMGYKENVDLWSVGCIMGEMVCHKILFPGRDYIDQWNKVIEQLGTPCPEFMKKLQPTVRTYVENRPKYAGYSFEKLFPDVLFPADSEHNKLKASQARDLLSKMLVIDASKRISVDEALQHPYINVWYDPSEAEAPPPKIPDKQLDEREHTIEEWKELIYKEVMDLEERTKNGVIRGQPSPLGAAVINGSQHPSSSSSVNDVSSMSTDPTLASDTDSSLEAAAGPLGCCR

[10] = target: Serine/threonine-protein kinase TAO1 (Homo sapiens, UniProt Q7L7X3)
[11] = target: Hepatocyte growth factor receptor (Homo sapiens, UniProt P08581);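 further: kinase panel profiling across the kinome, with MET as the panel member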
Sequence of Hepatocyte growth factor receptor (P08581 whole entry): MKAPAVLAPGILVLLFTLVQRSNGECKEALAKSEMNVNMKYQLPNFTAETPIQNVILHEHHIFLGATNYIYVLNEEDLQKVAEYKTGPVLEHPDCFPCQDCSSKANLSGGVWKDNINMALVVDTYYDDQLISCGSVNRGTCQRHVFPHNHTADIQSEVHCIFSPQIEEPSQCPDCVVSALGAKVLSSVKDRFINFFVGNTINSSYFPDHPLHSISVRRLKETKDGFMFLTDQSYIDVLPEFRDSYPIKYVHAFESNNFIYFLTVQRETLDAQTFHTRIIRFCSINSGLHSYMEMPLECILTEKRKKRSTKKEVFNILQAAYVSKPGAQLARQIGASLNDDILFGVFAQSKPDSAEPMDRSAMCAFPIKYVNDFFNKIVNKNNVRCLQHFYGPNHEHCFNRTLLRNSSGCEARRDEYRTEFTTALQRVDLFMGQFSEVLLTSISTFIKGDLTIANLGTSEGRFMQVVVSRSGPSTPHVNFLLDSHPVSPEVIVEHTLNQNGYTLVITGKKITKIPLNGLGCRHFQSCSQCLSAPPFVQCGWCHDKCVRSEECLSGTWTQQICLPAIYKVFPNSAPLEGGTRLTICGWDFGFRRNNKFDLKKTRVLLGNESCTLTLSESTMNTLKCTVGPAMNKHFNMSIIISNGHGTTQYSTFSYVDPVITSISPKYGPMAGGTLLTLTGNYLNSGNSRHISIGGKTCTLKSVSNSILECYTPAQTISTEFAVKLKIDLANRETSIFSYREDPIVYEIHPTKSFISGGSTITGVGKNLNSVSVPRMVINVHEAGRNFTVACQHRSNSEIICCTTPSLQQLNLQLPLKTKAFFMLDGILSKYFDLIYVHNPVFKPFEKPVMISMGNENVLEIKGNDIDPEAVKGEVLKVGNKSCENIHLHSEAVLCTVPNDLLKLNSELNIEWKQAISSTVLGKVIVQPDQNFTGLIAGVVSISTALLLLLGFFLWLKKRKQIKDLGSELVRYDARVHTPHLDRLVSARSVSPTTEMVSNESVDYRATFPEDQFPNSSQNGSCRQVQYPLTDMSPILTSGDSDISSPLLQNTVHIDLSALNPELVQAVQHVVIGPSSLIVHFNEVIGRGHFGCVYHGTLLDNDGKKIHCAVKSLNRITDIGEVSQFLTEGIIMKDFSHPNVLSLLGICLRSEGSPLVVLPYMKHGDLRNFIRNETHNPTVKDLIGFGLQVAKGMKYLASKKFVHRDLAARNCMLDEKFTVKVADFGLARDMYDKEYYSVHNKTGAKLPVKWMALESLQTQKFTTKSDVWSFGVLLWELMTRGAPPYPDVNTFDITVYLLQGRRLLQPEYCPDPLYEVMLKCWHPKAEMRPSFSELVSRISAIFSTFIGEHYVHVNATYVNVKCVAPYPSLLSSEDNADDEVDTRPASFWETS

[12] = target: Fibroblast growth factor receptor 1 (Homo sapiens, UniProt P11362)
[13] = target: Calcium/calmodulin-dependent protein kinase type II subunit alpha (Homo sapiens, UniProt Q9UQM7); assay: Navigating the Kinome. Panel member name: CAMK2A
Sequence of Calcium/calmodulin-dependent protein kinase type II subunit alpha (Q9UQM7 whole entry): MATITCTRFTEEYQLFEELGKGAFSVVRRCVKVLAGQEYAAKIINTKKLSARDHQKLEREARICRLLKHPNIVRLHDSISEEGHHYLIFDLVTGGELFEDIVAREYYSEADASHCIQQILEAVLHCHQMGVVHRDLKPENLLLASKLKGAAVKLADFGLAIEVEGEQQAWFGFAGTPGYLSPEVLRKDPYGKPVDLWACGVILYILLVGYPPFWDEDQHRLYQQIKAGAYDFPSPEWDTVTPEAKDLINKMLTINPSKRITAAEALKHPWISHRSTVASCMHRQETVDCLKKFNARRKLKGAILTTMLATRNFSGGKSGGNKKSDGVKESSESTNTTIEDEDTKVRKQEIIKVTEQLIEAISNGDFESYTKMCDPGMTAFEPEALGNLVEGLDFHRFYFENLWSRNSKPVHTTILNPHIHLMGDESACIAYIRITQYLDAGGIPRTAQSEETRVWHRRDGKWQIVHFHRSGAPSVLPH

[14] = target: Dual specificity tyrosine-phosphorylation-regulated kinase 1A (Homo sapiens, UniProt Q13627);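 further: measured against DYRK1A as one member of a broad kinome profiling panel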
LIM domain kinase 1 = LIM domain kinase 1 (Homo sapiens, UniProt P53667); assay: Navigating the Kinome. Panel member name: LIMK1
[15] = target: ALK tyrosine kinase receptor (Homo sapiens, UniProt Q9UM73);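 further: ALK tested as one member of a kinase panel screen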
[16] = target: Cyclin-dependent kinase 9 (Homo sapiens, UniProt P50750);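 further: value from the CDK9 entry of a kinome-spanning kinase panel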
[17] = target: Tyrosine-protein kinase JAK3 (Homo sapiens, UniProt P52333)
[18] = target: Proto-oncogene tyrosine-protein kinase receptor Ret (Homo sapiens, UniProt P07949);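 further: measured within a kinome-wide profiling panel, RET as the panel member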
[19] = target: Vascular endothelial growth factor receptor 1 (Homo sapiens, UniProt P17948);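 further: measured within a kinome-wide profiling panel, FLT1 as the panel member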
Focal adhesion kinase 1 = Focal adhesion kinase 1 (Homo sapiens, UniProt Q05397);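 further: measured as one member of a kinome panel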
Sequence of Focal adhesion kinase 1 (Q05397 whole entry): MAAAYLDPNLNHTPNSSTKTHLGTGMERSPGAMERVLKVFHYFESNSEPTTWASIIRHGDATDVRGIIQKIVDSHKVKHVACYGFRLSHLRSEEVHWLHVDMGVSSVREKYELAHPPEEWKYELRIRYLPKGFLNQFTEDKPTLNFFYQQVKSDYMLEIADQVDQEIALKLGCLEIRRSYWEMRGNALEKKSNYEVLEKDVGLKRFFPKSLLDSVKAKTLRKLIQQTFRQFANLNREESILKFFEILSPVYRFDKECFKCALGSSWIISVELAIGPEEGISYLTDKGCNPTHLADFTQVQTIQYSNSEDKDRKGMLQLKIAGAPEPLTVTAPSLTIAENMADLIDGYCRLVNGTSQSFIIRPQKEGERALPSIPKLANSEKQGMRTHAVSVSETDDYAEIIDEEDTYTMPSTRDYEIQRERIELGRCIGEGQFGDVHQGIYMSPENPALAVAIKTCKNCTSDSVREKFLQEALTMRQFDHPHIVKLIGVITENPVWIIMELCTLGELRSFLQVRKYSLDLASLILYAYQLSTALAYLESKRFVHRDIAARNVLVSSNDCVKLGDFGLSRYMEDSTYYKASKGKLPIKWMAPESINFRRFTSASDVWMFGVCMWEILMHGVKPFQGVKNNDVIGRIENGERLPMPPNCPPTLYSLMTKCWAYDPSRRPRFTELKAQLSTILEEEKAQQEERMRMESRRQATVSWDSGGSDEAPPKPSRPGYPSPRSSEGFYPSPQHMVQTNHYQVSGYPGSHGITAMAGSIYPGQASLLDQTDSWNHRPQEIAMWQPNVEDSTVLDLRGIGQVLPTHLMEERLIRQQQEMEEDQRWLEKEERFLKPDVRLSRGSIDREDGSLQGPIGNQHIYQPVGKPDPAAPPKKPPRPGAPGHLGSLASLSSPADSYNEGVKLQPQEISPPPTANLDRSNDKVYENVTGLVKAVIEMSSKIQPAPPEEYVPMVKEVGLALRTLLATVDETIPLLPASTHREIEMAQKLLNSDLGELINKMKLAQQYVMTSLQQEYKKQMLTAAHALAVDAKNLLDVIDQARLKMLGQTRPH

[20] = target: Dual specificity mitogen-activated protein kinase kinase 1 (Homo sapiens, UniProt Q02750); assay: Navigating the Kinome. Panel member name: MAP2K1
[21] = target: Dual specificity mitogen-activated protein kinase kinase 2 (Homo sapiens, UniProt P36507); assay: Navigating the Kinome. Panel member name: MAP2K2
[22] = target: Macrophage-stimulating protein receptor (Homo sapiens, UniProt Q04912); assay: Navigating the Kinome. Panel member name: MST1R
Activated CDC42 kinase 1 = Activated CDC42 kinase 1 (Homo sapiens, UniProt Q07912); assay: Navigating the Kinome. Panel member name: ACK1
[23] = target: cAMP-dependent protein kinase catalytic subunit alpha (Homo sapiens, UniProt P17612)
[24] = target: Platelet-derived growth factor receptor beta (Homo sapiens, UniProt P09619);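 further: value comes from a kinome panel, with PDGFRB tested as one panel member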
[25] = target: Serine/threonine-protein kinase pim-1 (Homo sapiens, UniProt P11309)
[26] = target: Cyclin-dependent kinase 7 (Homo sapiens, UniProt P50613);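 further: value comes from a kinome-wide kinase profiling panel in which CDK7 is one member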
Aurora kinase A = Aurora kinase A (Homo sapiens, UniProt O14965);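 further: value from the Navigating the Kinome kinase panel profiling, panel entry STK6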
[27] = target: Receptor-type tyrosine-protein kinase FLT3 (Homo sapiens, UniProt P36888);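 further: FLT3 was tested as one member of a kinome-wide kinase panel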
[28] = target: Dual specificity tyrosine-phosphorylation-regulated kinase 1B (Homo sapiens, UniProt Q9Y463); assay: Navigating the Kinome. Panel member name: DYRK1B
[29] = target: Dual specificity protein kinase CLK4 (Homo sapiens, UniProt Q9HAZ1)

Sequence of Macrophage colony-stimulating factor 1 receptor (P07333 whole entry): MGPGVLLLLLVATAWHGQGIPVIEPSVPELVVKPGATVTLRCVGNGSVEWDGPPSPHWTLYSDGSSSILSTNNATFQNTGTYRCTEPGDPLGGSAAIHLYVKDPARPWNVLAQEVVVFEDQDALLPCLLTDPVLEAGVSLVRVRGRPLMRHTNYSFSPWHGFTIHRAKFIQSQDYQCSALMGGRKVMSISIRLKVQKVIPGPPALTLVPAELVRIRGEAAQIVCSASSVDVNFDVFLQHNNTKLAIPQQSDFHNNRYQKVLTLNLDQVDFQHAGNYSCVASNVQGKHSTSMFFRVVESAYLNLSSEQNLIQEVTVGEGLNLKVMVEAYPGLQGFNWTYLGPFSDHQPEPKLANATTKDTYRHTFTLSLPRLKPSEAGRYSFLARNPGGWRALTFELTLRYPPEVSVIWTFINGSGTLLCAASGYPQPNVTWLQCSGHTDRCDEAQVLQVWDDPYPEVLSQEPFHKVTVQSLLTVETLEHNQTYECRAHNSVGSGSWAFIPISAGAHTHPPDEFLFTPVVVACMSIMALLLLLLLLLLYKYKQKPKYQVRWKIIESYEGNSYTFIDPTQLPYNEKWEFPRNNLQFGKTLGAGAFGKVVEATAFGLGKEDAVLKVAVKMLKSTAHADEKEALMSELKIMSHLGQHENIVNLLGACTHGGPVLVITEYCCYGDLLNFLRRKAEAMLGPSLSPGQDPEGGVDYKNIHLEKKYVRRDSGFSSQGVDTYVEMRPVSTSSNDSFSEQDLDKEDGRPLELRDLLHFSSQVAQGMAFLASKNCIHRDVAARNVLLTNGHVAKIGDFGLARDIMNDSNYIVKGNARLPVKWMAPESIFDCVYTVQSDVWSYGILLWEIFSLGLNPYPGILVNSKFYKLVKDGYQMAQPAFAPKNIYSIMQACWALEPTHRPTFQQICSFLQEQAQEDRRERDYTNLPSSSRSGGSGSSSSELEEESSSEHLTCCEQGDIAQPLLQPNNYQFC

Ki [1]: 1.26 µM (active) | Ki [2]: 2 µM (active) | Ki [3]: 2.51 µM (active) | Ki [4]: 2 µM (active) | Ki [5]: 1.26 µM (active) | Ki [6]: 0.794 µM (active) | Ki [7]: 0.794 µM (active) | Ki [8]: 1.26 µM (active) | Ki [9]: 2.51 µM (active) | Ki [10]: 5.01 µM (active) | Ki [11]: 1 µM (active) | Ki [12]: 1.26 µM (active) | Ki [13]: 1.26 µM (active) | Ki [14]: 1 µM (active) | Ki (LIM domain kinase 1): 1.26 µM (active) | Ki [15]: 2 µM (active) | Ki [16]: 1 µM (active) | Ki [17]: 2 µM (active) | Ki [18]: 1.58 µM (active) | Ki [19]: 2.51 µM (active) | Ki (Focal adhesion kinase 1): 5.01 µM (active) | Ki [20]: 2.51 µM (active) | Ki [21]: 1.58 µM (active) | Ki [22]: 2.51 µM (active) | Ki (Activated CDC42 kinase 1): 1 µM (active) | Ki [23]: 1.26 µM (active) | Ki [24]: 2 µM (active) | Ki [25]: 3.98 µM (active) | Ki [26]: 2.51 µM (active) | Ki (Aurora kinase A): 1.58 µM (active) | Ki [27]: 2 µM (active) | Ki [28]: 1.26 µM (active) | Ki [29]: 0.794 µM (active)
Compound: CC(=O)Nc1ccc(-n2nc3ccc(N)nc3n2)cc1
